Reference: patent US5696153A, “Therapeutic regimen for treating patients” (priority 1996, dated 1997)
Entries after “also recorded” stand apart in the source; their conditions may differ. Like-named read-outs stand apart in the source and are kept apart here.

How the values were obtained:
[1] = system: VA-MG-SL glioblastoma cells; assay: cells; details: for cytotoxicity at 0.1 µg/mL / cytotoxicity at 1 µg/mL: Homo sapiens, 120 h
From the text: (§1) Cell lines tested included: Glioblastoma cell lines VA-MG-SL and U-373-MG, neuroblastoma cell lines SK-N-AS, SK-N-FI and VA-N-BR, and two primitive neuroectodermal tumor cell lines SK-N-LO and SK-PN-DW at different concentrations. All cell lines were personally established from patients and cultured except U-373-MG (obtained from the American Type Culture Collection, Rockville, […]., USA). The cell lines SK-N-AS, SK-N-FI, SK-N-LO and SK-PN-DW have been reported in several publications and are believed to be representative of their respective lineages.
(§2) Stock cells in 25 cm^2 flasks were incubated in Dubelco's modified Eagle's medium (Sigma, St. Louis, Mo.) containing 10% fetal bovine serum at 37° C. and 5% CO2 in air for 5 days. Media was renewed on the sixth day and on the seventh day the cells were detached into a single cell suspension with trypsin EDTA, counted and aliquots plated at 3000 to 5000 cells in 0.1 ml fresh media in separate wells of a 96-well microliter plate (Becton-Dickinson Labware, Lincoln Park, N.J.). […] Six replicate wells were used in every experiment as controls and for each test concentration. Each experiment was repeated three separate times. Viability of the cell lines 5 days after exposure to drugs was determined by the MTT assay following published procedures.
(§3) Cytocidal activity was defined when the number of cells or the MTT surrogate optical density value was less than the initial inoculum. This is usually the case when ≥80% toxicity is recorded under these in vitro conditions.
(§4) Differences were considered to be statistically significant for a p-value of 0.05 or less.

[2] = system: SK-N-AS neuroblastoma cells; assay: MTT cytotoxicity, SK-N-AS; details: for cytotoxicity at 0.01 µg/mL / cytotoxicity at 0.1 µg/mL / cytotoxicity at 1 µg/mL: Homo sapiens, 120 h
From the text: as §1, §2, §3, §4

[3] = system: SK-N-AS cells; assay: Effects of spacing exposure to taxol on toxicity in SK-N-AS cells
Method: as §2

[4] = system: SK-N-AS neuroblastoma tumor in nude mice; assay: Studies B and D: antitumor activity, Q4Dx3 vs Q4Hx3; format: in vivo
[5] = Toxicity in nude mice (wasting, weight loss); format: in vivo
[6] = Human toxicity, Q4D schedule (Study X); format: in vivo, human patients
From the text: […] It should be understood that these patients were deemed "salvage" cases almost all of whom had not responded to conventional treatment. All were otherwise thought to be beyond approved therapeutic regimens. Thus, the results and evaluation are anecdotal in nature and are not part of a controlled and statistical valid clinical trial.
[…] All were previously treated with chemotherapy and radiation for cancers of the breast (5), ovarian (2), brain (3), prostate (1), head and neck (4), bone (2), leiomyosarcoma (2), and melanoma (1).

[7] = system: recurrent or refractory solid tumors of childhood; assay: Study Y: pilot study of children with recurrent or refractory cancer; format: in vivo, human (children)
Method: A pilot study of children with recurrent or refractory cancer was initiated under our direction. Ten patients with a variety of recurrent or refractory solid tumors of childhood were treated with the same dosage and schedule as the adults described above.

[8] = 40 mg/kg single IP
From the text: Five nude mice were maintained in each cage with a fiberglass bonnet in a clean isolation room. All cages and food were sterilized prior to use. Female nude mice were inoculated subcutaneously with 3×10^6 human neuroblastoma (SK-N-AS) tumor cells. Between 8-16 days, tumor growth was evident and measured.
Following sacrifice by cervical dislocation, tumor and normal tissues were immediately removed, sonicated, diluted in buffer (PBS containing 0.25% BSA, 0.05%, Tween 20, Methanol 20%, and Sodium Azide 2%). […] Tissue protein was determined using the BioRad kit (BioRad, 3300 Regatta Boulevard, Richmond, Calif. 94804).

[9] = Homo sapiens, SK-N-AS, 120 h, read-out: Survival (%)

Compound: CC(=O)O[C@H]1C(=O)[C@@]2(C)[C@H]([C@H](OC(=O)c3ccccc3)[C@]3(O)C[C@H](OC(=O)[C@H](O)[C@@H](NC(=O)c4ccccc4)c4ccccc4)C(C)=C1C3(C)C)[C@]1(OC(C)=O)CO[C@@H]1C[C@@H]2O [taxol]
- cytotoxicity at 0.1 µg/mL ([1]; read-out: Taxol toxicity, VA-MG-SL, 0.1 μg/ml x 1 h, 5 days after exposure): 58%
- cytotoxicity at 0.1 µg/mL ([1]; read-out: Taxol toxicity, VA-MG-SL, 0.1 μg/ml x 4 h, 5 days after exposure): 56%
- cytotoxicity at 0.1 µg/mL ([1]; read-out: Taxol toxicity, VA-MG-SL, 0.1 μg/ml x 24 h, 5 days after exposure): 58%
- cytotoxicity at 1 µg/mL ([1]; read-out: Taxol toxicity, VA-MG-SL, 1.0 μg/ml x 1 h, 5 days after exposure): 87%
- cytotoxicity at 1 µg/mL ([1]; read-out: Taxol toxicity, VA-MG-SL, 1.0 μg/ml x 4 h, 5 days after exposure): 90%
- cytotoxicity at 1 µg/mL ([1]; read-out: Taxol toxicity, VA-MG-SL, 1.0 μg/ml x 24 h, 5 days after exposure): 86%
- minimal effective concentration ([1]; read-out: concentration at which cell line was affected): ≥ 0.1 µg/mL
- cytotoxicity compared with a 1 hour exposure ([2]; 0.01 μg/ml, 24 hour): enhanced cytotoxicity
- toxicity in words ([2]; 0.01 μg/ml, ≥1 hour exposure): toxic
- resilience of cell line to taxol ([2]; 0.01-1.0 μg/ml): least resilient of the cell lines
- cytotoxicity at 0.01 µg/mL ([2]; read-out: Taxol toxicity, SK-N-AS, 0.01 μg/ml x 1 h, 5 days after exposure): 15%
- cytotoxicity at 0.01 µg/mL ([2]; read-out: Taxol toxicity, SK-N-AS, 0.01 μg/ml x 4 h, 5 days after exposure): 25%
- cytotoxicity at 0.01 µg/mL ([2]; read-out: Taxol toxicity, SK-N-AS, 0.01 μg/ml x 24 h, 5 days after exposure, p < 0.05 vs 1 h): 50%
- cytotoxicity at 0.1 µg/mL ([2]; read-out: Taxol toxicity, SK-N-AS, 0.1 μg/ml x 1 h, 5 days after exposure): 65%
- cytotoxicity at 0.1 µg/mL ([2]; read-out: Taxol toxicity, SK-N-AS, 0.1 μg/ml x 4 h, 5 days after exposure): 67%
- cytotoxicity at 0.1 µg/mL ([2]; read-out: Taxol toxicity, SK-N-AS, 0.1 μg/ml x 24 h, 5 days after exposure, p < 0.05 vs 1 h): 81%
- cytotoxicity at 1 µg/mL ([2]; read-out: Taxol toxicity, SK-N-AS, 1.0 μg/ml x 1 h, 5 days after exposure): 87%
- cytotoxicity at 1 µg/mL ([2]; read-out: Taxol toxicity, SK-N-AS, 1.0 μg/ml x 4 h, 5 days after exposure): 82%
- cytotoxicity at 1 µg/mL ([2]; read-out: Taxol toxicity, SK-N-AS, 1.0 μg/ml x 24 h, 5 days after exposure): 89%
- viability at 0.3 µg/mL [3, 9]: 61%
- viability at 0.6 µg/mL [3, 9]: 24%
- cytotoxic effects of single vs split exposure ([3]; single exposure 0.6 μg/ml/h): greater than when taxol was scheduled as 0.3 μg/ml given once and once again after 30 minutes
- antitumor activity, Q4D×3 vs Q4H×3 ([4]; 15 mg/kg IP): greater antitumor activity than the Q4H×3 schedule
- antitumor activity, Q4D vs QD schedule ([4]; mouse, in vivo): better in the Q4D than in the QD schedule
- toxicity of dosage ([5]; 10 mg/kg IP Q4D×3, neuroblastoma tumor bearing nude mice): non-toxic dosage
- toxicity of schedule ([5]; 15 mg/kg every 4 hours×3 in one day): equally non-toxic
- toxicity of schedule ([5]; 15 mg/kg every 4 days×3): equally non-toxic
- indications of toxicity (wasting or weight loss) ([5]; Study B, 15 mg/kg IP Q4D×3): no indications of toxicity
- toxic reaction and side effects vs twenty-four hour infusion ([6]; 45-120 mg/m^2, 60-180 minutes, Q4D×3): less toxic reaction and side effects than equivalent dosage levels over a twenty-four hour infusion
- maximum amount infused without exceeding toxicity limits ([6]; 80 minute interval): 120 mg/m^2
- Alk. Phos. toxicity: A None ([6]; Q4D 60 mg/m^2): 18
- Alk. Phos. toxicity: B Abnormal pre-III, Improved ([6]; Q4D 60 mg/m^2): 3
- Alk. Phos. toxicity: C Abnormal pre-III, Worsened or same ([6]; Q4D 60 mg/m^2): 1
- Alk. Phos. toxicity: D Normal pre-III, Worsened ([6]; Q4D 60 mg/m^2): 1
- Alk. Phos. toxicity: E Grades ([6]; Q4D 60 mg/m^2): 1
- Bilirubin toxicity: A None ([6]; Q4D 60 mg/m^2): 22
- Bilirubin toxicity: B Abnormal pre-III, Improved ([6]; Q4D 60 mg/m^2): 0
- Bilirubin toxicity: C Abnormal pre-III, Worsened or same ([6]; Q4D 60 mg/m^2): 0
- Bilirubin toxicity: D Normal pre-III, Worsened ([6]; Q4D 60 mg/m^2): 1
- Bilirubin toxicity: E Grades ([6]; Q4D 60 mg/m^2): 1
- HB toxicity: A None ([6]; Q4D 60 mg/m^2): 18
- HB toxicity: B Abnormal pre-III, Improved ([6]; Q4D 60 mg/m^2): 1
- HB toxicity: C Abnormal pre-III, Worsened or same ([6]; Q4D 60 mg/m^2): 2
- HB toxicity: D Normal pre-III, Worsened ([6]; Q4D 60 mg/m^2): 2
- HB toxicity: E Grades ([6]; Q4D 60 mg/m^2): 1,4
- PLT. toxicity: A None ([6]; Q4D 60 mg/m^2): 19
- PLT. toxicity: B Abnormal pre-III, Improved ([6]; Q4D 60 mg/m^2): 0
- PLT. toxicity: C Abnormal pre-III, Worsened or same ([6]; Q4D 60 mg/m^2): 3
- PLT. toxicity: D Normal pre-III, Worsened ([6]; Q4D 60 mg/m^2): 1
- PLT. toxicity: E Grades ([6]; Q4D 60 mg/m^2): 3
- SGOT toxicity: A None ([6]; Q4D 60 mg/m^2): 20
- SGOT toxicity: B Abnormal pre-III, Improved ([6]; Q4D 60 mg/m^2): 0
- SGOT toxicity: C Abnormal pre-III, Worsened or same ([6]; Q4D 60 mg/m^2): 0
- SGOT toxicity: D Normal pre-III, Worsened ([6]; Q4D 60 mg/m^2): 3
- WBC toxicity: A None ([6]; Q4D 60 mg/m^2): 15
- WBC toxicity: B Abnormal pre-III, Improved ([6]; Q4D 60 mg/m^2): 0
- WBC toxicity: C Abnormal pre-III, Worsened or same ([6]; Q4D 60 mg/m^2): 2
- WBC toxicity: D Normal pre-III, Worsened ([6]; Q4D 60 mg/m^2): 6
- GGT toxicity: A None ([6]; Q4D 60 mg/m^2, 11 pts): 9
- GGT toxicity: B Abnormal pre-III, Improved ([6]; Q4D 60 mg/m^2, 11 pts): 2
- GGT toxicity: C Abnormal pre-III, Worsened or same ([6]; Q4D 60 mg/m^2, 11 pts): 0
- GGT toxicity: D Normal pre-III, Worsened ([6]; Q4D 60 mg/m^2, 11 pts): 0
- Alb. toxicity: A None ([6]; Q4D 60 mg/m^2, 22 pts): 22
- Alb. toxicity: B Abnormal pre-III, Improved ([6]; Q4D 60 mg/m^2, 22 pts): 0
- Alb. toxicity: C Abnormal pre-III, Worsened or same ([6]; Q4D 60 mg/m^2, 22 pts): 0
- Alb. toxicity: D Normal pre-III, Worsened ([6]; Q4D 60 mg/m^2, 22 pts): 0
- BUN toxicity: A None ([6]; Q4D 60 mg/m^2, 22 pts): 21
- BUN toxicity: B Abnormal pre-III, Improved ([6]; Q4D 60 mg/m^2, 22 pts): 0
- BUN toxicity: C Abnormal pre-III, Worsened or same ([6]; Q4D 60 mg/m^2, 22 pts): 0
- BUN toxicity: D Normal pre-III, Worsened ([6]; Q4D 60 mg/m^2, 22 pts): 0
- Creat toxicity: A None ([6]; Q4D 60 mg/m^2, 22 pts): 21
- Creat toxicity: B Abnormal pre-III, Improved ([6]; Q4D 60 mg/m^2, 22 pts): 0
- Creat toxicity: C Abnormal pre-III, Worsened or same ([6]; Q4D 60 mg/m^2, 22 pts): 0
- Creat toxicity: D Normal pre-III, Worsened ([6]; Q4D 60 mg/m^2, 22 pts): 0
- LDH toxicity: A None ([6]; Q4D 60 mg/m^2, 22 pts): 18
- LDH toxicity: B Abnormal pre-III, Improved ([6]; Q4D 60 mg/m^2, 22 pts): 3
- LDH toxicity: C Abnormal pre-III, Worsened or same ([6]; Q4D 60 mg/m^2, 22 pts): 0
- LDH toxicity: D Normal pre-III, Worsened ([6]; Q4D 60 mg/m^2, 22 pts): 0
- T P toxicity: A None ([6]; Q4D 60 mg/m^2, 22 pts): 21
- T P toxicity: B Abnormal pre-III, Improved ([6]; Q4D 60 mg/m^2, 22 pts): 0
- T P toxicity: C Abnormal pre-III, Worsened or same ([6]; Q4D 60 mg/m^2, 22 pts): 0
- T P toxicity: D Normal pre-III, Worsened ([6]; Q4D 60 mg/m^2, 22 pts): 0
- toxicity or hypersensitivity vs currently recommended dosages ([6]; Q4D regimen, also without pretreatment): reduced toxicity or hypersensitivity reactions
- CMAX taxol-associated toxicity ([6]; Q4D schedule): no clinically significant CMAX taxol-associated toxicity
- abnormalities on UA., CA^++, Phos, CO2, Cl, Na^+, K^+, Mg^+ ([6]; in vivo): No abnormalities detected
- alopecia ([6]; in vivo): 2/4
- diploplia for several hours each day following treatment ([6]; in vivo): One
- malaise and fatigue ([6]; in vivo): Four
- toxicity of infusion with separated treatment days ([6]; treatment days separated by 3-5 days): toxicity of the taxol infusion was diminished
- tumor response on CT scan ([7]; one patient, pelvic embryonal rhabdomyosarcoma): shrinkage of their tumor
- decrease in tumor volume ([7]; one patient, recurrent glioblastoma multiforme, after 9 treatments): 30%
- progression ([7]; rhabdomyosarcoma patient, shortly following the 9th treatment): developed a brain metastasis
- Tumor size ([8]; day 1): 378 mm^2
- Tumor size ([8]; day 2): 480 mm^2
- Tumor size ([8]; day 3): 208 mm^2
- Tumor size ([8]; day 4): 80 mm^2
- Tumor size ([8]; day 5): 252 mm^2
- Tumor size ([8]; day 6): 154 mm^2
- concentration in normal tissues, treated vs controls (10 mg/kg IP Q4D×3, then single 20 mg/kg IP): consistently greater than in nontreated controls; also recorded: consistently greater than in Group A
- concentration in tumor vs liver, kidney or lung (after single 20 mg/kg IP): usually greater in tumor tissue compared to liver, kidney or lung
- distribution in tumor tissue compared to liver, kidney or lung (mouse, in vivo): four to thirty
- Taxol, tumor (treated (Cages II, III): 10 mg/kg Q4D×3, then 20 mg/kg IP 24 h prior, individual mice): 195.24 ng/mg Protein
